Measurements: EP1790655B1, “Biologically active peptides” (CMS Peptides Patent Holding Company Limited, priority 2001, dated 2003)

Tests used:
S180 sarcoma cells = assay: growth of transplanted S180 sarcoma in mice; format: in vivo, BALB/c mice; conditions: 20mg/kg i.p. once per day from the day after transplanting
Description: (§1) Intraperitoneal injection, once per day. […] Treatment of all groups with testing substance lasted for 30 days or until the animal died unless otherwise specified.
The mice were killed by cervical vertebra dislocation. Vigorously growing and non-disrupted tumor masses were harvested and washed clean with sterile saline. The tissue was dispersed in saline to a homogenous cell suspension, in a ratio of 1 g tissue to 4 ml saline. […] Administration of test substance treatment started as described in section Method 1.
After the phagocytosis index study, the mice were killed by cervical vertebra dislocation. The liver, spleen, and cancer tissue were dissected, blotted dry, and weighed.

L1210 leukemia = assay: survival of mice with transplanted L1210 leukemia; format: in vivo, DBA/2 mice; conditions: 20mg/kg i.p. once per day from the day after transplanting, Kaplan-meier mean
Source text: as §1
The mice were then killed by cervical vertebra dislocation and their ascitic fluid collected aseptically. […] Treatment started in the testing animals as described in section Method 1. Mean survival day was obtained by the Kaplan-meier method in the Survival option of the SPSS software. If the animal survived longer than the experiment, the survival days was entered as the duration of the experiment.

[1] = tested on: ascitic fluid type liver cancer H22; assay: survival of mice with transplanted ascitic fluid type liver cancer H22; format: in vivo, BALB/c mice; conditions: 20mg/kg i.p. once per day from the day after transplanting, Kaplan-meier mean
Description: Intraperitoneal injection, once per day. […] The cyclophosphamide groups were treated on the next day after transplanting the cancer cells. Treatment of all groups with testing substance lasted for 30 days or until the animal died unless otherwise specified.
Stock H22 cells were incubated in DMEM/F12 medium supplemented with 10% fetal bovine serum, 37°C/5%CO2 for 72 hrs, then washed 3-4 times with Hank's solution at room temperature. Adjust cell concentration to 1-2 x 10^9 per litre with Hank's solution. 0.2ml of the cell suspension was implanted to the abdominal cavity of several BALB/c mice for 6-8 days. The mice were killed by cervical vertebra dislocation. Ascitic fluid of the mice was collected asceptically and the cell concentration adjusted to 1 x 10^6 per ml with Hank's solution. 0.2ml of the cell suspension was implanted into the abdominal cavity of healthy mice to generate the H22 carrying mouse model for ascitic fluid type liver cancer. Administration of test substance started as described in section Method 1. Survival data of the mice was recorded. If the animal survived longer than the experiment, the survival days was recorded as the duration of the experiment. […] The survival index was calculated according to the following formula: Survival index = (mean survival days of treatment group-mean survival days of control group)ömean survival days of control group x 100% [formula]

[2] = tested on: Masugi nephritis rat model; assay: Masugi nephritis rat model; format: in vivo, Sprague Dawley (SD) rats; conditions: peptides 50µg/kg/day
Source text: The anti-serum was then exuded and isolated.
Whole blood was collected from 15 healthy SD rats.
3. […] Treatment started on the day of induction.
4. […] Adequate drinking water was supplied.

SMILES | Tumor weight (S180 sarcoma cells) [g] | Survival days (L1210 leukemia) [days] | Survival days [1] [days] | spleen index (mean spleen weight / mean body weight) ([2]; after three weeks of treatment, hydrocortisone 3.3mg/kg/day (halved after first week) i.p.) | growth rate ([2]; nephritis rats, hydrocortisone 3.3mg/kg/day i.p.)
O=P1(N(CCCl)CCCl)NCCCO1 (centres unmarked) [Cyclo-phos phamide, Cyclophosphamide] | 0.68 ± 0.32 | 24.0 ± 5.3 | 24.7 ± 10.2 | – | –
C[C@]12CCC(=O)C=C1CC[C@@H]1[C@@H]2[C@@H](O)C[C@@]2(C)[C@H]1CC[C@]2(O)C(=O)CO [hydrocortisone, Hydrocortisone] | – | – | – | 4.5±1.4 x10-3 | slower growth rate than normal
